Data as given in ChEMBL document CHEMBL4308877, “Thiazole, thio and semicarbazone derivatives against tropical infective diseases: Chagas disease, human African trypanosomiasis (HAT), leishmaniasis, and malaria” (Eur J Med Chem, 2019).
Converted amounts (≈) assume the structure as drawn. One block for each compound: values may come before it.

Key:
[1] = tested on: Trypanosoma cruzi; assay: Anti-parasitic activity against amastigote stage of Trypanosoma cruzi Y infected in monkey LLC-MK2 cells after 96 hrs; assay type: functional, organism-based; details: LLC-MK2, 96 h
[2] = tested on: Trypanosoma cruzi; assay: Anti-parasitic activity against trypomastigote stage of Trypanosoma cruzi Y infected in monkey LLC-MK2 cells after 24 hrs; assay type: functional, organism-based; details: LLC-MK2, 24 h
[3] = tested on: C6; assay: Cytotoxicity against rat C6 cells assessed as reduction in cell viability after 24 hrs by MTT assay; assay type: functional, cell-based; details: C6, 24 h
[4] = tested on: A549; assay: Cytotoxicity against human A549 cells assessed as reduction in cell viability after 24 hrs by MTT assay; assay type: functional, cell-based; details: A549, 24 h
[5] = tested on: Trypanosoma brucei gambiense; assay: Anti-parasitic activity against Trypanosoma brucei gambiense MBA; assay type: functional, organism-based
[6] = tested on: Trypanosoma brucei brucei; assay: Anti-parasitic activity against Trypanosoma brucei brucei AnTat1.1E; assay type: functional, organism-based
[7] = Selectivity index, ratio of IC50 for HEK293T cells to IC50 for Trypanosoma brucei gambiense MBA; assay type: toxicity; details: human
[8] = Selectivity index, ratio of IC50 for HEK293T cells to IC50 for Trypanosoma brucei rhodesiense STIB 851; assay type: toxicity; details: human
[9] = Selectivity index, ratio of IC50 for HEK293T cells to IC50 for Trypanosoma brucei brucei AnTat1.1E; assay type: toxicity; details: human
[10] = tested on: Trypanosoma brucei rhodesiense; assay: Anti-parasitic activity against Trypanosoma brucei rhodesiense STIB 851; assay type: functional, organism-based
[11] = tested on: Trypanosoma brucei; assay: Anti-parasitic activity against wild type Trypanosoma brucei; assay type: functional, organism-based
[12] = tested on: Trypanosoma brucei; assay: Anti-parasitic activity against type 1 nitroreductase over-expressing Trypanosoma brucei; assay type: functional, organism-based
[13] = Selectivity index, ratio of IC50 for human THP1 cells to IC50 for Trypanosoma brucei overexpressing the type 1 nitroreductase; assay type: toxicity; details: read-out: Ratio IC50
[14] = Selectivity index, ratio of IC50 for human SK-N-SH cells to IC50 for wild type Trypanosoma brucei; assay type: toxicity; details: read-out: Ratio IC50
[15] = target: Vascular endothelial growth factor receptor 2 (Homo sapiens) (UniProt P35968); assay: Inhibition of recombinant GST-tagged human KDR (789 to end residues) expressed in baculovirus infected Sf9 cells at 10 uM using peptide as substrate preincubated for 1 hr followed by substrate addition measured after 20 mins by HTRF assay relative to control
[16] = target: Platelet-derived growth factor receptor alpha (Homo sapiens) (UniProt P16234); assay: Inhibition of recombinant GST-tagged human PDGFRalpha (550 to 1089 residues) cytoplasmic domain expressed in baculovirus expression system at 10 uM using peptide as substrate preincubated for 1 hr followed by substrate addition measured after 20 mins by HTRF assay relative to control
[17] = tested on: WI-38; assay: Cytotoxicity against human WI38 cells assessed as reduction in cell viability after 72 hrs by MTT assay; assay type: cell-based; details: WI-38, 72 h
[18] = tested on: HT-29; assay: Cytotoxicity against human HT-29 cells assessed as reduction in cell viability after 72 hrs by MTT assay; assay type: functional, cell-based; details: HT-29, 72 h
[19] = tested on: MKN-45; assay: Cytotoxicity against human MKN45 cells assessed as reduction in cell viability after 72 hrs by MTT assay; assay type: functional, cell-based; details: MKN-45, 72 h
[20] = tested on: NCI-H460; assay: Cytotoxicity against human H460 cells assessed as reduction in cell viability after 72 hrs by MTT assay; assay type: functional, cell-based; details: NCI-H460, 72 h
[21] = target: Hepatocyte growth factor receptor (Homo sapiens) (UniProt P08581); assay: Inhibition of recombinant N-terminal His6-tagged human c-MET (974 to end residues) expressed in baculovirus infected Sf21 cells at 10 uM using peptide as substrate preincubated for 1 hr followed by substrate addition measured after 20 mins by HTRF assay relative to control
[22] = target: RAF proto-oncogene serine/threonine-protein kinase (Homo sapiens) (UniProt P04049); assay: Inhibition of c-Raf (unknown origin) at 10 uM using peptide as substrate preincubated for 1 hr followed by substrate addition measured after 20 mins by HTRF assay relative to control
[23] = tested on: Leishmania infantum; assay: Anti-parasitic activity against amastigote stage of Leishmania infantum MHOM/BR/BH 46 infected in macrophages after 24 hrs by Giemsa staining based method; assay type: functional, organism-based; details: MHOM/BR/BH 46, 24 h
[24] = tested on: Leishmania infantum; assay: Anti-parasitic activity against promastigote stage of Leishmania infantum MHOM/BR/BH 46 after 72 hrs by Neubauer chamber method; assay type: functional, organism-based; details: MHOM/BR/BH 46, 72 h
[25] = Selectivity index, ratio of cytotoxic activity for macrophages (unknown origin) to IC50 for amastigote stage of Leishmania infantum MHOM/BR/BH 46; assay type: toxicity; details: read-out: Ratio CC50/IC50
[26] = Selectivity index, ratio of CC50 for mouse J774 cells to IC50 for promastigote stage of Leishmania infantum MHOM/BR/BH 46; assay type: toxicity; details: read-out: Ratio CC50/IC50
[27] = tested on: Trypanosoma cruzi; assay: Anti-parasitic activity against amastigote stage of Trypanosoma cruzi Sylvio X-10 infected in African green monkey Vero cells after 72 hrs by Giemsa-staining based assay; assay type: functional, organism-based; details: Sylvio X-10, Vero
[28] = tested on: Trypanosoma cruzi; assay: Anti-parasitic activity against epimastigote stage of Trypanosoma cruzi Tulahuen 2 measured at day 5; assay type: functional, organism-based; details: Tulahuen 2, 120 h
[29] = Selectivity index, ratio of cytotoxic activity for African green monkey Vero cells to IC50 for amastigote stage of Trypanosoma cruzi Tulahuen CL2; assay type: toxicity
[30] = tested on: Trypanosoma cruzi; assay: Anti-parasitic activity against amastigote stage of Trypanosoma cruzi Tulahuen CL2 infected in human MRC5 cells after 7 days by […] reporter gene assay; assay type: functional, organism-based; details: Tulahuen CL2, MRC5, 168 h
[31] = tested on: Trypanosoma brucei brucei; assay: Anti-parasitic activity against Trypanosoma brucei brucei 427 after 72 hrs by Alamar Blue assay; assay type: functional, organism-based; details: Trypanosoma brucei, 427, 72 h
[32] = Selectivity index, ratio of LC50 for salina eggs to IC50 for Trypanosoma brucei brucei 427; assay type: toxicity; details: Artemia salina (brine shrimp), read-out: Ratio IC50

Hepatocyte growth factor receptor (Homo sapiens), sequence (P08581 whole entry): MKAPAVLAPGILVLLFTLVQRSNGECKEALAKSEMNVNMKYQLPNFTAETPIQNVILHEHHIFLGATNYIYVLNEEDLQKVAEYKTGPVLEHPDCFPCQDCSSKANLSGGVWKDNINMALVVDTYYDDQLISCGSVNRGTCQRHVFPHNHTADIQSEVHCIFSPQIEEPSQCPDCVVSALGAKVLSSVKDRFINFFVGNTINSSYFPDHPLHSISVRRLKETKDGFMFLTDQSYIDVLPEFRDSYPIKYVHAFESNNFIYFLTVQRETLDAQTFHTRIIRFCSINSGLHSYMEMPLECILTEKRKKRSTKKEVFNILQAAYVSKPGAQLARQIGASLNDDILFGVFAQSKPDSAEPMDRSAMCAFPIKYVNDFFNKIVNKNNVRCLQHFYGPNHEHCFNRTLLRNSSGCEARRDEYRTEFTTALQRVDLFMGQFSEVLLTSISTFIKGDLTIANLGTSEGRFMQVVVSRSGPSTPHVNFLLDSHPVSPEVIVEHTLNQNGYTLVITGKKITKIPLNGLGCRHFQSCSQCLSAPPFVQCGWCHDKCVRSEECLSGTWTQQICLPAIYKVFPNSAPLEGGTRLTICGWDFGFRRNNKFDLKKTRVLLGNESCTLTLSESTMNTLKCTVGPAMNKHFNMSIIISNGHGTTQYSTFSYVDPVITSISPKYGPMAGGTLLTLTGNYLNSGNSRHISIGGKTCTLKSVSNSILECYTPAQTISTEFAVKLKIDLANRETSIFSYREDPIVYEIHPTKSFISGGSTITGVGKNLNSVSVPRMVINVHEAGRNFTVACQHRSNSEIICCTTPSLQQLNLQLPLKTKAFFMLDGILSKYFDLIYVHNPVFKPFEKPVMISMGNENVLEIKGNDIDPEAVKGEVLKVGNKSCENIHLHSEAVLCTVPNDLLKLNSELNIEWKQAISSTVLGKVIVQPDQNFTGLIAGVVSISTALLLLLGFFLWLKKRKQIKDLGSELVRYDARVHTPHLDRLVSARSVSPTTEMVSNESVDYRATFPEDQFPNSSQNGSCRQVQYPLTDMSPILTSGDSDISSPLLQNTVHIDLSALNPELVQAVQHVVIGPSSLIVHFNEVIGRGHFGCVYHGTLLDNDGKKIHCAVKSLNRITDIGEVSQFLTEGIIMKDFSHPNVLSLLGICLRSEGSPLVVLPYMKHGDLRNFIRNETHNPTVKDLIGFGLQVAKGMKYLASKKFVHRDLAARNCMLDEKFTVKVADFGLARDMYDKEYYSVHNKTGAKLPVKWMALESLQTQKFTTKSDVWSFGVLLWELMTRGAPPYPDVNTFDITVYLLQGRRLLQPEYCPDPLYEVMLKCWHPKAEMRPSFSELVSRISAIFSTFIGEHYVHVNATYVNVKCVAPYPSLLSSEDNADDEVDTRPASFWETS
Platelet-derived growth factor receptor alpha (Homo sapiens), sequence (P16234 whole entry, the tested form may be a part): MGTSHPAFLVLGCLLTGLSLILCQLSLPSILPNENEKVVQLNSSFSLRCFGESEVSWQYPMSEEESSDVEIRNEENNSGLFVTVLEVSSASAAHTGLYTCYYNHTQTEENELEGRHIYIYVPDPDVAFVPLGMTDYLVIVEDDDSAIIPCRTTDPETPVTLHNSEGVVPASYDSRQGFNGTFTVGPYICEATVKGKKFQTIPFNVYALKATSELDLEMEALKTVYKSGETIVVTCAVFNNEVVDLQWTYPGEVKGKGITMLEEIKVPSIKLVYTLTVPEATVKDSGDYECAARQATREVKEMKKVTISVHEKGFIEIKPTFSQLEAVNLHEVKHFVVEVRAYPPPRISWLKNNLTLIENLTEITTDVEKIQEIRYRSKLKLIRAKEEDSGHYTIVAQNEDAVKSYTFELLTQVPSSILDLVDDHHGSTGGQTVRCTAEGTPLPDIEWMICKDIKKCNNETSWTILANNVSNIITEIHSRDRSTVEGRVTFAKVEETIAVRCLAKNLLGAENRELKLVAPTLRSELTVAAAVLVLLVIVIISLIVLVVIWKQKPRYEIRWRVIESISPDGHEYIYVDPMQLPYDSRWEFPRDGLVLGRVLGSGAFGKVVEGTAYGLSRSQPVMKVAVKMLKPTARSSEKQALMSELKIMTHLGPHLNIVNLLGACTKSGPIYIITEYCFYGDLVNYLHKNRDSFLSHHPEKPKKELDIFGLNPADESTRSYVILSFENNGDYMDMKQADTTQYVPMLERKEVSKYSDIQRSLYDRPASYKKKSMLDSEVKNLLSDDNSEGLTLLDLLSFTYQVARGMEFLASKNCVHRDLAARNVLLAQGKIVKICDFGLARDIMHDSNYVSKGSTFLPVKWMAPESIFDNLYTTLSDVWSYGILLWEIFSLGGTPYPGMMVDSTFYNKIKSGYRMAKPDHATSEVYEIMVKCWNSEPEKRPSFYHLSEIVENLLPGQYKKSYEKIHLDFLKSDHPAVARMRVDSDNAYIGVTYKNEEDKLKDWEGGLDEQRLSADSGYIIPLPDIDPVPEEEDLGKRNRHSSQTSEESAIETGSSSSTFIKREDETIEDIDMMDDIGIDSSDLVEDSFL
RAF proto-oncogene serine/threonine-protein kinase (Homo sapiens), sequence (P04049 whole entry): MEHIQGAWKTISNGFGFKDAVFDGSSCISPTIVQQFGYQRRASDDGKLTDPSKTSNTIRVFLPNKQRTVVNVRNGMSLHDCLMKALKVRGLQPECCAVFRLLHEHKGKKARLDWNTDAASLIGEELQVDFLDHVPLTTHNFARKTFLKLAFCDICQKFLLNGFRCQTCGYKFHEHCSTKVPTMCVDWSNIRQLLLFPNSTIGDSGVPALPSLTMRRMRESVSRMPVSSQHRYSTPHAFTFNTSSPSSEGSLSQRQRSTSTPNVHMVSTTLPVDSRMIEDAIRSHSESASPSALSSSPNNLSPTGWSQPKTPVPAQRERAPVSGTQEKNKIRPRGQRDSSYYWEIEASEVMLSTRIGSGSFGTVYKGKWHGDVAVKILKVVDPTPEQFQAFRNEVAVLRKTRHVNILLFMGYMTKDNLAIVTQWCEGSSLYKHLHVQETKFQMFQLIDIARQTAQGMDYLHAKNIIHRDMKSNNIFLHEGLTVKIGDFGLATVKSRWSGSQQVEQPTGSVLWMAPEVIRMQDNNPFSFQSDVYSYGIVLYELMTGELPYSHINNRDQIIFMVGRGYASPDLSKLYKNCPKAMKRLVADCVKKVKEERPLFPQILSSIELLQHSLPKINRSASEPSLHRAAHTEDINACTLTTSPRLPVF
Vascular endothelial growth factor receptor 2 (Homo sapiens), sequence (P35968 whole entry, the tested form may be a part): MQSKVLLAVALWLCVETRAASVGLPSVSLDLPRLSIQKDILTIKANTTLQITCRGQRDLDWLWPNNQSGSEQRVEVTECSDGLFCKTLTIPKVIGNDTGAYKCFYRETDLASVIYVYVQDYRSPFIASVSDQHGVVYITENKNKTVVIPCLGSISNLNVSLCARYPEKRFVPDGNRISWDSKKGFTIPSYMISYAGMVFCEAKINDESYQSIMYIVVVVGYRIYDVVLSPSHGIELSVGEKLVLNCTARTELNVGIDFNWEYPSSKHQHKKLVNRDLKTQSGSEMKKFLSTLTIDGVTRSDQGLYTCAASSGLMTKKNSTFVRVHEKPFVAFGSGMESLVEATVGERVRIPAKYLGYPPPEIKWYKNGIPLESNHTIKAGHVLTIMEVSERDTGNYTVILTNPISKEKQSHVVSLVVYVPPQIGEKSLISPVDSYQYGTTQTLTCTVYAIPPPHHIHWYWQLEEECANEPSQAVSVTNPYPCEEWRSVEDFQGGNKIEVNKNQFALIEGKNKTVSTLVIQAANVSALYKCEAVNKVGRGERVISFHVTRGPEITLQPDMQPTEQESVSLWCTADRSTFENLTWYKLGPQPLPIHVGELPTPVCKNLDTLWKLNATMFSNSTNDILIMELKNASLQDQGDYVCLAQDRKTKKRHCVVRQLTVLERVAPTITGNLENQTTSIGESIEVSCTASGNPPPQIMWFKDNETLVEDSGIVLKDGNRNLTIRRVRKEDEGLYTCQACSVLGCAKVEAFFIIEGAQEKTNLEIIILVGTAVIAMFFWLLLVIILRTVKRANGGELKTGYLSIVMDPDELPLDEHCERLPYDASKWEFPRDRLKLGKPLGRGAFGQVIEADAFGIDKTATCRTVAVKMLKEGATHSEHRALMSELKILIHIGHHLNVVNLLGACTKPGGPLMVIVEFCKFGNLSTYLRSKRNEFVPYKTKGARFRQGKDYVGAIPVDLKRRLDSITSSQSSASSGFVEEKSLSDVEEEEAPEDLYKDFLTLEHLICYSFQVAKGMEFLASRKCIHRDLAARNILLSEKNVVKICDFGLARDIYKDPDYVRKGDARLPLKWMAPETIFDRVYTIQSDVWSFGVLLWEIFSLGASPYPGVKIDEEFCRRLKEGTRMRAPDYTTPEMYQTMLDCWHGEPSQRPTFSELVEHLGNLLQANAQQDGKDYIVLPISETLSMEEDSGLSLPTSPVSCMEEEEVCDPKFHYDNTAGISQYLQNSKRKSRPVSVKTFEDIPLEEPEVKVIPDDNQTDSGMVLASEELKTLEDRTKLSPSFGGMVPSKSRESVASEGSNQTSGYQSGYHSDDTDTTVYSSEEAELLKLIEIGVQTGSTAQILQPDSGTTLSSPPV

SMILES: Cc1c(CO)c(CO)c2n1[C@@H](c1ccccc1)SC2
- IC50 [3]: 3.83 µg/mL (≈ 13.9 µM)
- IC50 [4]: 12 µg/mL (≈ 43.6 µM)

SMILES: CC(=O)Nc1ncc([N+](=O)[O-])s1 [NITHIAMIDE]
- IC50 [11]: 4670 nM
- IC50 [12]: 580 nM
- selectivity ratio [13]: 149
- selectivity ratio [14]: > 21

SMILES: CCCC(=O)Nc1ncc([N+](=O)[O-])s1
- IC50 [11]: 6470 nM
- IC50 [12]: 640 nM
- selectivity ratio [13]: > 156
- selectivity ratio [14]: > 15

SMILES: O=C1c2ccccc2C(=O)N1Nc1nc(-c2ccc3ccccc3c2)cs1
- IC50 [23]: 5200 nM
- IC50 [24]: 9800 nM
- selectivity ratio [25]: 24
- selectivity ratio [26]: 17.7

SMILES: CCOc1cccc2sc(N(Cc3cccnc3)C(=O)C3CCCCC3)nc12
- selectivity ratio [29]: > 200
- IC50 [30]: 160 nM

SMILES: S=C(NN=C(c1ccccc1)c1ccccc1)Nc1ccccc1
- IC50 [31]: 8480 nM
- selectivity ratio [32]: 43.2

Further lines, with some results ahead:

- IC50 [1]: 3230 nM
- EC50 [2]: 1430 nM
SMILES: N/C(S)=N/N=C/c1ccc([N+](=O)[O-])cc1

- IC50 [5]: 61 nM
- IC50 [6]: 92 nM
- IC50 [10]: 263 nM
SMILES: O=c1c2ccccc2sn1-c1ccccc1
- selectivity ratio [7]: 262
- selectivity ratio [8]: 60.8
- selectivity ratio [9]: 174

- inhibition [15]: 14%
- inhibition [16]: 14%
- inhibition [21]: 14%
- inhibition [22]: 70.7%
SMILES: O=C(N/N=C/c1c(Cl)cccc1Cl)Nc1ccc(Oc2ccnc(-n3cnnn3)c2)c(F)c1
- IC50 [17]: 3960 nM
- IC50 [18]: 80 nM
- IC50 [19]: 970 nM
- IC50 [20]: 360 nM

- IC50 [23]: 22300 nM
- IC50 [24]: 13900 nM
SMILES: O=C1c2ccccc2C(=O)N1Nc1nc(-c2ccc(Cl)cc2Cl)cs1
- selectivity ratio [25]: 12
- selectivity ratio [26]: 12.7

- IC50 [6]: 937 nM
SMILES: CCOC(=O)c1ccc(-n2sc3ccccc3c2=O)cc1
- selectivity ratio [9]: > 267

- EC50 [27]: 700 nM
- IC50 [28]: 3100 nM
SMILES: C=CCn1c(C(=O)N2CCN(C/C=C/c3ccccc3)CC2)cs\c1=N/N=C/C=C/c1ccco1
